Laboratory results published in patent EP0381989A1, “New 4'-epi-4'-amino anthracyclines” (FARMITALIA CARLO ERBA S.r.l., priority 1989, dated 1990).
Values after ≈ are worked out from the molar mass of the structure shown.

Experiments:
[1] = test system: LoVo (human colon adenocarcinoma); assay: in vitro cytotoxicity (colony growth inhibition) on LoVo cells; details: for IC50: Homo sapiens, LoVo, 4 h, read-out: Cytotoxicity after 4h of treatment (IC50) LoVo; for Cytotoxicity after 4h of treatment (IC50) LoVo: lovo cells
Method: (§1) The biological activity of the compounds according to the inventio was tested in vitro against LoVo (human colon adenocarcinoma) and LoVo/DX cells in comparison with doxorubicin and 4-demethoxydaunorubicin (4-dem-DNR). Table 1. Table 1 -

LoVo/DX cells = assay: in vitro cytotoxicity (colony growth inhibition) on LoVo/DX cells; details: for IC50: Homo sapiens, LoVo/DX, read-out: Cytotoxicity after 4h of treatment (IC50) LoVo/DX; for IC50 / Cytotoxicity after 4h of treatment (IC50) LoVo/DX: 4 h; for R.I. = Resistance Index = (IC50 LoVo.DX)/(IC50 LoVo): ratio of IC50 on LoVo/DX to IC50 on LoVo, 4h of treatment; for Cytotoxicity after 4h of treatment (IC50) LoVo/DX: lovo/dx cells
Method: as §1

Compound	IC50 [1]	IC50 (LoVo/DX cells)	R.I. = Resistance Index = (IC50 LoVo.DX)/(IC50 LoVo) (LoVo/DX cells)	Cytotoxicity after 4h of treatment (IC50) LoVo [1]	Cytotoxicity after 4h of treatment (IC50) LoVo/DX (LoVo/DX cells)
C[C@@H]1O[C@@H](O[C@H]2C[C@](O)(C(=O)CO)Cc3c(O)c4c(c([N+](=O)[O-])c32)C(=O)c2ccccc2C4=O)CC[C@H]1N [2f, 4-demethoxy-6-deoxy-6-nitro-3′-deamino-4′-deoxy-4′-epi-amino-doxorubicin]	0.116 µg/mL (≈ 0.22 µM)	2.26 µg/mL (≈ 4.28 µM)	19.4		
COc1cccc2c1C(=O)c1c(O)c3c(c(O)c1C2=O)C[C@@](O)(C(=O)CO)C[C@@H]3O[C@H]1C[C@H](N)[C@H](O)[C@H](C)O1 [Doxorubicin, doxorubicin, reference compound]	0.06 µg/mL (≈ 0.11 µM)	2.18 µg/mL (≈ 4.01 µM)	36		
4-demethoxy-6-deoxy-6-amino-3′-deamino-4′-deoxy-4′-epi-amino-daunorubicin [1h]			2.2	0.004 µg/mL	0.0086 µg/mL
CC(=O)[C@]1(O)Cc2c(O)c3c(c(O)c2[C@@H](O[C@H]2CC[C@@H](N)[C@H](C)O2)C1)C(=O)c1c(O)cccc1C3=O [1a, 4-demethyl-3′-deamino-4′-deoxy-4′-epi-amino-daunorubicin]	0.0011 µg/mL (≈ 0.00221 µM)	0.0027 µg/mL (≈ 0.00543 µM)	2.4		
C[C@@H]1O[C@@H](O[C@H]2C[C@](O)(C(=O)CO)Cc3c(O)c4c(c(N)c32)C(=O)c2ccccc2C4=O)CC[C@H]1N [2h, 4-demethoxy-6-deoxy-6-amino-3′-deamino-4′-deoxy-4′-epi-amino-doxorubicin]	0.0062 µg/mL (≈ 0.0125 µM)	0.09 µg/mL (≈ 0.181 µM)	14.5		
CC(=O)[C@]1(O)Cc2c(O)c3c(c(O)c2[C@@H](O[C@H]2C[C@H](N)[C@H](O)[C@H](C)O2)C1)C(=O)c1ccccc1C3=O [4-dem-DNR, 4-demethoxydaunorubicin, reference compound]	0.02 µg/mL (≈ 0.0402 µM)	0.125 µg/mL (≈ 0.251 µM)	6		
CC(=O)[C@]1(O)Cc2c(O)c3c(c(O)c2[C@@H](O[C@H]2CC[C@@H](N)[C@H](C)O2)C1)C(=O)c1c(F)cccc1C3=O [1c, 4-demethoxy-4-fluoro-3′-deamino-4′-deoxy-4′-epi-amino-daunorubicin]	0.0012 µg/mL (≈ 0.0024 µM)	0.006 µg/mL (≈ 0.012 µM)	5.0		
4-demethyl-6-deoxy-3′-deamino-4′-deoxy-4′-epi-amino-doxorubicin [2d]			3.2	0.0012 µg/mL	0.0038 µg/mL
C[C@@H]1O[C@@H](O[C@H]2C[C@](O)(C(=O)CO)Cc3c2c(O)c2c(c3[N+](=O)[O-])C(=O)c3ccccc3C2=O)CC[C@H]1N [2e, 4-demethoxy-11-deoxy-11-nitro-3′-deamino-4′-deoxy-4′-epi-amino-doxorubicin]	0.0484 µg/mL (≈ 0.0919 µM)	0.205 µg/mL (≈ 0.389 µM)	4.2		
C[C@@H]1O[C@@H](O[C@H]2C[C@](O)(C(=O)CO)Cc3c(N)c4c(c(O)c32)C(=O)c2ccccc2C4=O)CC[C@H]1N [2g, 4-demethoxy-11-deoxy-11-amino-3′-deamino-4′-deoxy-4′-epi-amino-doxorubicin]	0.0188 µg/mL (≈ 0.0379 µM)	0.109 µg/mL (≈ 0.22 µM)	5.8		
